Source: ChEMBL document CHEMBL3046107, “A new isoflavone from Blepharis ciliaris of an Egyptian origin” (Med Chem Res, 2013)
The source made the active and inactive calls. The rule behind the calls is not given here.

Tested on: Radical scavenging activity
Test: Antioxidant activity assessed as DPPH radical scavenging activity at 20 uM after 2 min by spectrophotometric analysis
Format: functional

Row | Structure (SMILES) | Activity
1 | O=C(/C=C/c1ccc(O)c(O)c1)OC[C@H]1O[C@@H](Oc2cc(O)c3c(=O)c(-c4ccc(O)cc4)coc3c2)[C@H](O)[C@@H](O)[C@@H]1O | inactive
2 | O=C(/C=C/c1ccc(O)c(O)c1)OC[C@H]1O[C@@H](Oc2cc(O)c3c(c2)O[C@H](c2ccc(O)cc2)CC3=O)[C@H](O)[C@@H](O)[C@@H]1O | inactive
